Measurements taken from PubChem BioAssay AID602443 (National Center for Advancing Translational Sciences (NCATS), 2012).
Converted amounts (≈) assume the structure as drawn.

System: aqueous kinetic solubility
Test: High Content Assay for Compounds that inhibit the Assembly of the Perinucleolar Compartment: Aqueous Kinetic Solubility
Text: The perinucleolar compartment (PNC) is a non-membrane-bound nuclear subdomain that is associated with but structurally distinct from the nucleolus. The PNC is a heritable trait, in which the number of PNCs per cell in daughter cells often mimics that of their mother cells. The PNC is heterogeneous in shape, is stable through interphase, disassembles during mitosis, and reassembles in early G1. The PNC is concentrated with newly synthesized RNA polymerase III (pol III) RNAs (MRP RNA, RNAse P H1 RNA, hY RNAs[hY1, 2, 5], Alu RNA, and SRP [7SL] RNA) and RNA binding proteins (nucleolin, PTB, CUG-BP, KSRP, Raver1, Raver2, and Rod).
Extensive in vitro studies have shown that the PNC is unique to tumor cells and preferentially forms in tumor cells derived from solid tissues. Examination of cancer cell lines from various origins and malignant capacities has shown that PNC prevalence correlates with the malignancy of tumors and has the potential to be developed as a pan-cancer prognostic marker.
This bioassay provides profiling data on aqueous kinetic solubility (PBS @ pH 7.4) of some of the lead compounds developed for this project.
NIH Chemical Genomics Center [NCGC]
NIH Molecular Libraries Probe Centers Network [MLPCN] […]
5. Concentration of the supernatant was determined by LC-UV or LC-MS/MS

Structure (SMILES): N=c1c2c(-c3ccccc3)c(-c3ccccc3)n(Cc3ccccc3)c2ncn1C1CCC(O)CC1 (stereo unspecified)
- solubility: 150 µM (≈ 71.2 µg/mL)
